Data taken from patent publication EP0591765A2, “1,4-Dihydropyridine-alkoxy and alkylamino esters as antihypertensives” (BAYER AG, priority 1992, dated 1994).

Tested on: SH-Ratte
Assay: Blood pressure lowering in conscious spontaneously hypertensive rats (tail cuff, oral dosing)
Format: in vivo
Details: Rattus norvegicus; SH-Ratte: Blutdrucksenkung >15 mm; intragastral ("oral") in Tylosesuspension; read-out: Grenzdosis
Excerpt: Die Substanzen wurden an der wachen Ratte auf ihre blutdrucksenkende Wirkung hin untersucht. An wachen Ratten mit genetisch bedingtem Hochdruck ("spontan hypertone Ratten" des Okamoto-Stammes) wird der arterielle Blutdruck mit der "Schwanz-Manchette" in definierten Zeitabständen nach Substanzgabe unblutig gemessen. Die zu prüfenden Substanzen werden aufgeschwemmt in einer Tylosesuspension intragastral ("oral") per Schlundsonde in verschiedenen Dosen appliziert. Die erfindungsgemäßen Verbindungen senken den arteriellen Blutdruck der Hochdruckratten in klinisch relevanter Dosierung.

Compound	minimal effective dose [mg/kg]
COC(=O)C1=C(C)NC(C)=C(C(=O)OCCOC(=O)c2ccccc2OC(C)=O)C1c1ccccc1C(F)(F)F (stereo not drawn) [Beispiel 1, 5-[2-(2-Acetoxybenzoyloxy)ethoxycarbonyl]-2,6-dimethyl-4-(2-trifluormethylphenyl)-1,4-dihydropyridin-3-carbonsäuremethylester]	10
CC(=O)Oc1ccccc1C(=O)OCCOC(=O)C1=C(C)NC(C)=C(C(=O)OC(C)C)C1c1ccccc1[N+](=O)[O-] (stereo not drawn) [Beispiel 2]	30
CC(=O)Oc1ccccc1C(=O)OCCOC(=O)C1=C(C)NC(C)=C(C(=O)OC(C)C)C1c1ccccc1C(F)(F)F (stereo not drawn) [Beispiel 3]	10
CC(=O)Oc1ccccc1C(=O)OCCOC(=O)C1=C(C)NC(C)=C(C(=O)OC(C)C)C1c1ccccc1Cl (stereo not drawn) [Beispiel 4]	30
CCOC(=O)C1=C(C)NC(C)=C(C(=O)OCCOC(=O)c2ccccc2OC(C)=O)C1c1ccccc1C(F)(F)F (stereo not drawn) [Beispiel 5, 5-[2-(2-Acetoxybenzoyloxy)ethoxycarbonyl]-2,6-dimethyl-4-(2-trifluormethylphenyl)-1,4-dihydropyridin-3-carbonsäureethylester]	10
COC(=O)C1=C(C)NC(C)=C(C(=O)OCCOC(=O)c2ccccc2OC(C)=O)C1c1cccc(Cl)c1Cl (stereo not drawn) [Beispiel 6, 5-[2-(2-Acetoxybenzoyloxy)ethoxycarbonyl]-2,6-dimethyl-4-(2,3-dichlorphenyl)-1,4-dihydropyridin-3-carbonsäuremethylester]	3
